Source: ChEMBL document CHEMBL4680139, “Antiproliferative activity of diarylnaphthylpyrrolidine derivative via dual target inhibition” (Eur J Med Chem, 2020)

How the values were obtained:
[1] = Toxicity in Swiss albino mouse assessed as absolute and relative kidney weight at 5 to 300 mg/kg, po administered as single dose; assay type: organism-based; details: in vivo, dose 5-300 mg/kg
MCF7 [2] = test: Induction of cell cycle arrest in human MCF-7 cells assessed as accumulation at G0/G1 phase at 4.33 uM by propidium iodide staining based flow cytometry (reference value: 74.5%); assay type: functional
MCF7 [3] = test: Induction of apoptosis in human MCF-7 cells assessed as proportion of necrotic cells at 8.66 uM measured after 24 hrs by Annexin V- FITC/propidium iodide staining based flow cytometry (reference value: 5.3%); assay type: functional
MDA-MB-231 [4] = test: Induction of apoptosis in human MDA-MB-231 cells at 10.42 uM by propidium iodide staining based flow cytometry (reference value: 2.6 +/- 0.28%); assay type: functional
MCF7 [5] = test: Induction of apoptosis in human MCF-7 cells assessed as proportion of necrotic cells at 2.17 uM measured after 24 hrs by Annexin V- FITC/propidium iodide staining based flow cytometry (reference value: 5.3%); assay type: functional
MCF7 [6] = test: Induction of apoptosis in human MCF-7 cells at 2.17 uM by propidium iodide staining based flow cytometry (reference value: 2.1%); assay type: functional
MCF7 [7] = test: Induction of apoptosis in human MCF-7 cells assessed as proportion of early apoptotic cells at 8.66 uM measured after 24 hrs by Annexin V- FITC/propidium iodide staining based flow cytometry (reference value: 0%); assay type: functional
MCF7 [8] = test: Induction of cell cycle arrest in human MCF-7 cells assessed as accumulation at G2/M phase at 2.17 uM by propidium iodide staining based flow cytometry (reference value: 15.2%); assay type: functional
[9] = Toxicity in Swiss albino mouse assessed as absolute and relative brain weight at 5 to 300 mg/kg, po administered as single dose; assay type: organism-based; details: in vivo, dose 5-300 mg/kg
[10] = Toxicity in Swiss albino mouse assessed as haemoglobin level in blood at 5 mg/kg, po administered as single dose (reference value: 12.05 +/-0.88 gm/dl); assay type: organism-based; details: in vivo
MCF7 [11] = test: Antiproliferative activity against human MCF-7 cells assessed as proportion of dead cells at 12.5 ug/ml measured after 3 weeks by crystal violet staining based soft agar colony formation assay; assay type: functional; details: dose 12.5 µg/ml
MCF7 [12] = test: Antiproliferative activity against human MCF-7 cells assessed as proportion of dead cells at 25 ug/ml measured after 3 weeks by crystal violet staining based soft agar colony formation assay; assay type: functional; details: dose 25 µg/ml
MCF7 [13] = test: Induction of cell cycle arrest in human MCF-7 cells assessed as accumulation at S phase at 2.17 uM by propidium iodide staining based flow cytometry (reference value: 6.9%); assay type: functional
[14] = Toxicity in Swiss albino mouse assessed as total bilirubin level in serum at 300 mg/kg, po administered as single dose (reference value: 0.62 +/-0.05 mg/dl); assay type: organism-based; details: in vivo
A549 = test: Antiproliferative activity against human A549 cells assessed as inhibition of cell growth measured after 48 hrs by SRB assay; assay type: functional, cell-based; details: A549, 48 h
MDA-MB-231 [15] = test: Induction of apoptosis in human MDA-MB-231 cells assessed as proportion of viable cells at 5.21 uM measured after 24 hrs by Annexin V-FITC/propidium iodide staining based flow cytometry (reference value: 99%); assay type: functional
MCF7 [16] = test: Antiproliferative activity against human MCF-7 cells assessed as proportion of live cells at 50 ug/ml measured after 3 weeks by crystal violet staining based soft agar colony formation assay (reference value: 100%); assay type: functional; details: dose 50 µg/ml
MDA-MB-231 [17] = test: Induction of apoptosis in human MDA-MB-231 cells assessed as proportion of viable cells at 2.6 uM measured after 24 hrs by Annexin V-FITC/propidium iodide staining based flow cytometry (reference value: 99%); assay type: functional
[18] = Toxicity in Swiss albino mouse assessed as serum protein level at 5 mg/kg, po administered as single dose (reference value: 2.83 +/-0.09 mg/ml); assay type: organism-based; details: in vivo
[19] = Toxicity in Swiss albino mouse assessed as morbidity upto 300 mg/kg, po administered as single dose; assay type: organism-based; details: in vivo
MDA-MB-231 [20] = test: Induction of apoptosis in human MDA-MB-231 cells at 5.21 uM by propidium iodide staining based flow cytometry (reference value: 2.6 +/- 0.28%); assay type: functional
MCF7 [21] = test: Induction of apoptosis in human MCF-7 cells assessed as proportion of viable cells at 2.17 uM measured after 24 hrs by Annexin V- FITC/propidium iodide staining based flow cytometry (reference value: 94.6%); assay type: functional
[22] = Toxicity in Swiss albino mouse assessed as mortality upto 300 mg/kg, po administered as single dose; assay type: organism-based; details: in vivo
[23] = target: DNA topoisomerase 2-alpha (Homo sapiens) (UniProt P11388); test: Inhibition of DNA-topoisomerase 2 in human MCF7 cells using kinetoplast DNA as substrate at 8.66 uM measured by ELISA; assay type: cell-based
[24] = Toxicity in Swiss albino mouse assessed as triglyceride level in serum at 5 mg/kg, po administered as single dose (reference value: 78.34 +/-2.99 mg/dl); assay type: organism-based; details: in vivo
MCF7 [25] = test: Induction of apoptosis in human MCF-7 cells assessed as proportion of early apoptotic cells at 2.17 uM measured after 24 hrs by Annexin V- FITC/propidium iodide staining based flow cytometry (reference value: 0%); assay type: functional
MDA-MB-231 [26] = test: Induction of apoptosis in human MDA-MB-231 cells assessed as proportion of necrotic cells at 2.6 uM measured after 24 hrs by Annexin V-FITC/propidium iodide staining based flow cytometry (reference value: 0.2%); assay type: functional
[27] = Toxicity in Swiss albino mouse assessed as SGPT level in serum at 50 mg/kg, po administered as single dose (reference value: 21.81 +/-2.1 U/L); assay type: organism-based; details: in vivo
MCF7 [28] = test: Induction of apoptosis in human MCF-7 cells assessed as proportion of viable cells at 4.33 uM measured after 24 hrs by Annexin V- FITC/propidium iodide staining based flow cytometry (reference value: 94.6%); assay type: functional
[29] = Toxicity in Swiss albino mouse assessed as SGOT level in serum at 300 mg/kg, po administered as single dose (reference value: 22.12 +/-1.91 U/L); assay type: organism-based; details: in vivo
[30] = Toxicity in Swiss albino mouse assessed as albumin level in serum at 5 mg/kg, po administered as single dose (reference value: 0.56 +/-0.02 g/dl); assay type: organism-based; details: in vivo
MCF7 [31] = test: Antiproliferative activity against human MCF-7 cells assessed as proportion of live cells at 12.5 ug/ml measured after 3 weeks by crystal violet staining based soft agar colony formation assay (reference value: 100%); assay type: functional; details: dose 12.5 µg/ml
[32] = Toxicity in po dosed Swiss albino mouse administered as single dose; assay type: organism-based; details: in vivo
[33] = target: DNA topoisomerase 2-alpha (Homo sapiens) (UniProt P11388); test: Inhibition of DNA-topoisomerase 2 in human MCF7 cells using kinetoplast DNA as substrate at 17.32 uM measured by ELISA; assay type: cell-based
MCF7 [34] = test: Induction of apoptosis in human MCF-7 cells assessed as proportion of late apoptotic cells at 8.66 uM measured after 24 hrs by Annexin V- FITC/propidium iodide staining based flow cytometry (reference value: 0.1%); assay type: functional
[35] = Toxicity in Swiss albino mouse assessed as haemoglobin level in blood at 300 mg/kg, po administered as single dose (reference value: 12.05 +/-0.88 gm/dl); assay type: organism-based; details: in vivo

Sequence of DNA topoisomerase 2-alpha (Homo sapiens) (P11388 whole entry): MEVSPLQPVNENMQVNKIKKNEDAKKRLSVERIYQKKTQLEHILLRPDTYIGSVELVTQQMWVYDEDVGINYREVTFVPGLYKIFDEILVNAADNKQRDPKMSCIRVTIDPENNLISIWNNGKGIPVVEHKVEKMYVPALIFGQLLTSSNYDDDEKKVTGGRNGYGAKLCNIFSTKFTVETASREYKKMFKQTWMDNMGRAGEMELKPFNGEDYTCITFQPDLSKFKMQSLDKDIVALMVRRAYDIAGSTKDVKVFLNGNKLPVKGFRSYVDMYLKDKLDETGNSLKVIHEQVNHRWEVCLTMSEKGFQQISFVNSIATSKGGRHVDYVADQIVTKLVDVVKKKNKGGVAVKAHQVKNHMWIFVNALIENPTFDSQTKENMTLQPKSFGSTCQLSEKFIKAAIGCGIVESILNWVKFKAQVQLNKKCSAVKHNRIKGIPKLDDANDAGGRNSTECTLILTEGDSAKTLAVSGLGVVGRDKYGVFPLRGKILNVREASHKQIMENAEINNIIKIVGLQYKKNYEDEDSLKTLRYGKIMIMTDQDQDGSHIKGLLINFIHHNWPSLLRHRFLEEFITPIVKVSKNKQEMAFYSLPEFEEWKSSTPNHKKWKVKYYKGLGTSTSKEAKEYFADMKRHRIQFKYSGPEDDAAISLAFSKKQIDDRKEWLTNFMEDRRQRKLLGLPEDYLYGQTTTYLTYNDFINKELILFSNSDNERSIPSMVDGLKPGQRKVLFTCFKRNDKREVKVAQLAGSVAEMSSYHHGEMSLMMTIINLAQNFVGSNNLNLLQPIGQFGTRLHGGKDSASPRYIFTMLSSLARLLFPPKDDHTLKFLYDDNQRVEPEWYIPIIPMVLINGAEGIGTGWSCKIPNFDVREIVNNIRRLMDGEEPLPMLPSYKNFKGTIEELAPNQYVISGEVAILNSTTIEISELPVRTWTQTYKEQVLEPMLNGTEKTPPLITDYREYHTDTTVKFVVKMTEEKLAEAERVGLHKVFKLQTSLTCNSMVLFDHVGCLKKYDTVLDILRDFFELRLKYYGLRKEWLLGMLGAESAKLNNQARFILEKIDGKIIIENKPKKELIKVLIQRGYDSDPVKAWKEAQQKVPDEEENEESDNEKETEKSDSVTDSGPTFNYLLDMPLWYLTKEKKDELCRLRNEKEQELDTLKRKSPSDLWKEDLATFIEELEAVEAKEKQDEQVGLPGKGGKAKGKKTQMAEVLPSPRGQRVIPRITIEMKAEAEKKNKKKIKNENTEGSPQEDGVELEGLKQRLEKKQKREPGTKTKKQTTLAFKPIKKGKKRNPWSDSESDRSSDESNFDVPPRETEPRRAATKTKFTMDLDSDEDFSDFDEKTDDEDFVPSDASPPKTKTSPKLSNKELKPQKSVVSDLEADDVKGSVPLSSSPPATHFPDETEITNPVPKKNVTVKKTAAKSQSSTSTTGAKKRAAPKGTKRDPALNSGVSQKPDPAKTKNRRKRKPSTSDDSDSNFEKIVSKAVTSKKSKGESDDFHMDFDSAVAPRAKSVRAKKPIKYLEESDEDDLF

COc1ccc(C(c2ccccc2OCCN2CCCC2)c2cccc3ccccc23)c(OC)c1OC (stereo unspecified)
Activity [1]: Non-Toxic | Activity (MCF7 [2]): 67.4% | Activity (MCF7 [3]): 12.1% | Activity (MDA-MB-231 [4]): 16.7% | Activity (MCF7 [5]): 5% | Activity (MCF7 [6]): 2.2% | Activity (MCF7 [7]): 0% | Activity (MCF7 [8]): 12.1% | Activity [9]: Non-Toxic | Activity [10]: 11.35 g/dL | Activity (MCF7 [11]): 52.8% | Activity (MCF7 [12]): 79.36% | Activity (MCF7 [13]): 10.9% | Activity [14]: 1.01 mg/dL | IC50 (A549): 5.85 µM | Activity (MDA-MB-231 [15]): 91.4% | Activity (MCF7 [16]): 12.98% | Activity (MDA-MB-231 [17]): 95.1% | Activity [18]: 2.27 mg/mL | Activity [19]: Non-Toxic | Activity (MDA-MB-231 [20]): 2.8% | Activity (MCF7 [21]): 77.8% | Activity [22]: Non-Toxic | inhibition [23]: 13.7% | Activity [24]: 77.24 mg/dL | Activity (MCF7 [25]): 0% | Activity (MDA-MB-231 [26]): 2.1% | Activity [27]: 19.12 U/L | Activity (MCF7 [28]): 63.1% | Activity [29]: 25.61 U/L | Activity [30]: 0.65 g/dL | Activity (MCF7 [31]): 47.2% | MTD [32]: ≤ 300 mg/kg | inhibition [33]: 25.9% | Activity (MCF7 [34]): 25.8% | Activity [35]: 10.13 g/dL
